Measurements as given in patent publication US9505786B2, “Substituted annulated triazines and use thereof” (BAYER INTELLECTUAL PROPERTY GMBH, priority 2012, dated 2016).
Read-outs that look alike come from different tables or passages of the source.

Experiments:
aorta rings = test: Vasorelaxant effect in vitro (phenylephrine-contracted aorta rings); settings: rabbit aorta rings, organ bath, phenylephrine contraction, read-out: IC50 (concentration needed to reduce the phenylephrine contraction by 50%)
Protocol: B-1. Vasorelaxant Effect In Vitro
Rabbits are stunned by a blow to the neck and exsanguinated. The aorta is removed, freed from adhering tissue and divided into rings of a width of 1.5 mm. The rings are placed individually under an initial tension in 5 ml organ baths with Krebs-Henseleit solution which is at 37° C., is gassed with carbogen and has the following composition (in each case mM): sodium chloride: 119; potassium chloride: 4.8; calcium chloride dihydrate: 1; magnesium sulphate heptahydrate: 1.4; potassium dihydrogenphosphate: 1.2; sodium bicarbonate: 25; glucose: 10. The contractile force is determined with Statham UC2 cells, amplified and digitalized using A/D transducers (DAS-1802 HC, Keithley Instruments Munich), and recorded in parallel on linear recorders.
To produce a contraction, phenylephrine is added to the bath cumulatively in increasing concentration. After several control cycles, the substance to be investigated is added in each further run in increasing dosage in each case, and the height of the contraction achieved is compared with the height of the contraction reached in the last preceding run. This is used to calculate the concentration needed to reduce the magnitude of the control value by 50% (IC50 value). The standard administration volume is 5 μl; the DMSO content in the bath solution corresponds to 0.1%.

[1] = biological target: human phosphodiesterase 5 (PDE 5) (Homo sapiens (Human), UniProt O76074); test: Inhibition of human phosphodiesterase 5 (PDE 5), SPA assay; format: biochemical; settings: PDE 5 preparation from human platelets, [8-3H] cGMP substrate
Protocol: B-6. Inhibition of Human Phosphodiesterase 5 (PDE 5)
PDE 5 preparations are obtained from human platelets by disruption (Microfluidizer®, 800 bar, 3 passes), followed by centrifugation (75 000 g, 60 min, 4° C.) and ion exchange chromatography of the supernatant on a Mono Q 10/10 column (linear sodium chloride gradient, elution with a 0.2-0.3M solution of sodium chloride in buffer (20 mM Hepes pH 7.2, 2 mM magnesium chloride). Fractions having PDE 5 activity are combined (PDE 5 preparation) and stored at −80° C.
To determine their in vitro action on human PDE 5, the test substances are dissolved in 100% DMSO and serially diluted. Typically, dilution series (1:3) from 200 μM to 0.091 μM are prepared (resulting final concentrations in the test: 4 μM to 0.0018 μM). In each case 2 μl of the diluted substance solutions are placed into the wells of microtitre plates (Isoplate-96/200W; Perkin Elmer). Subsequently, 50 μl of a dilution of the above-described PDE 5 preparation are added. The dilution of the PDE 5 preparation is chosen such that during the later incubation less than 70% of the substrate are converted (typical dilution: 1:100; dilution buffer: 50 mM Tris/hydrochloric acid pH 7.5, 8.3 mM magnesium chloride, 1.7 mM EDTA, 0.2% BSA). The substrate, [8-^3H] cyclic guanosine-3′,5′-monophosphate (1 μCi/μl; Perkin Elmer) is diluted 1:2000 with assay buffer (50 mM tris/hydrochloric acid pH 7.5, 8.3 mM magnesium chloride, 1.7 mM EDTA) to a concentration of 0.0005 μCi/μl. By addition of 50 μl (0.025 μCi) of the diluted substrate, the enzyme reaction is finally started. The test mixtures are incubated at room temperature for 60 min and the reaction is stopped by adding 25 μl of a suspension of 18 mg/ml yttrium scintillation proximity beads in water (phosphodiesterase beads for SPA assays, RPNQ 0150, Perkin Elmer). The microtitre plates are sealed with a film and left to stand at room temperature for 60 min. Subsequently, the plates are analysed for 30 s per well in a Microbeta scintillation counter (Perkin Elmer). IC50 values are determined using the graphic plot of the substance concentration against percentage PDE 5 inhibition.

[2] = tested on: recombinant guanylate cyclase reporter cell line; test: Effect on a recombinant guanylate cyclase reporter cell line; format: cell-based
Protocol: B-2. Effect on a Recombinant Guanylate Cyclase Reporter Cell Line
The cellular activity of the compounds according to the invention is determined using a recombinant guanylate cyclase reporter cell line, as described in F. Wunder et al., Anal. Biochem. 339, 104-112 (2005).

| SMILES | IC50 (aorta rings; Oryctolagus cuniculus) | IC50 [1] | IC50 (aorta rings) | MEC (minimum effective concentration) [2] |
| --- | --- | --- | --- | --- |
| CC1(C)C(=O)Nc2nc(-c3nn(Cc4ccccc4F)c4ncc(F)cc34)nc(CCC(F)(F)F)c21 [Example 58, 2-[5-Fluoro-1-(2-fluorobenzyl)-1H-pyrazolo[3,4-b]pyridin-3-yl]-5,5-dimethyl-4-(3,3,3-trifluoropropyl)-5,7-dihydro-6H-pyrrolo[2,3-d]pyrimidin-6-one] | 9800 nM | 660 nM |  | 300 nM |
| CC1(C)C(=O)Nc2nc(-c3nn(Cc4ccccc4F)c4ncccc34)nc(C#CC3CC3)c21 [Example 16, 4-(Cyclopropylethynyl)-2-[1-(2-fluorobenzyl)-1H-pyrazolo[3,4-b]pyridin-3-yl]-5,5-dimethyl-5,7-dihydro-6H-pyrrolo[2,3-d]pyrimidin-6-one] | 617 nM | 410 nM |  | 30 nM |
| C=CCC1(C)C(=O)Nc2nc(-c3nn(Cc4ccccc4F)c4ncccc34)nnc21 (racemic) [Example 28, (rac) 7-Allyl-3-[1-(2-fluorobenzyl)-1H-pyrazolo[3,4-b]pyridin-3-yl]-7-methyl-5,7-dihydro-6H-pyrrolo[2,3-e][1,2,4]triazin-6-one] | 209 nM | 310 nM |  | 30 nM |
| O=C1Nc2nc(-c3nn(Cc4ccccc4F)c4ncccc34)ncc2C1(O)C(F)(F)C(F)(F)F (stereo not shown) [Example 3, 2-[1-(2-Fluorobenzyl)-1H-pyrazolo[3,4-b]pyridin-3-yl]-5-hydroxy-5-(pentafluoroethyl)-5,7-dihydro-6H-pyrrolo[2,3-d]pyrimidin-6-one] | 266 nM | 2400 nM |  | 30 nM |
| CC1(C)C(=O)Nc2nc(-c3nn(Cc4ccccc4F)c4ncc(F)cc34)nc(CN)c21.O=CO [Example 44, 4-(Aminomethyl)-2-[5-fluoro-1-(2-fluorobenzyl)-1H-pyrazolo[3,4-b]pyridin-3-yl]-5,5-dimethyl-5,7-dihydro-6H-pyrrolo[2,3-d]pyrimidin-6-one formate] | 501 nM | 870 nM |  | 30 nM |
| CC1(C)C(=O)Nc2nc(-c3nn(Cc4ccccc4F)c4ncccc34)nc(CCC(F)(F)F)c21 [Example 31, 2-[1-(2-Fluorobenzyl)-1H-pyrazolo[3,4-b]pyridin-3-yl]-5,5-dimethyl-4-(3,3,3-trifluoropropyl)-5,7-dihydro-6H-pyrrolo[2,3-d]pyrimidin-6-one] | 309 nM | 260 nM |  | 100 nM |
| Cc1nc2c(cc1F)c(-c1ncc3c(n1)NC(=O)C3(C)C)nn2Cc1ccccc1F [Example 20, 2-[5-Fluoro-1-(2-fluorobenzyl)-6-methyl-1H-pyrazolo[3,4-b]pyridin-3-yl]-5,5-dimethyl-5,7-dihydro-6H-pyrrolo[2,3-d]pyrimidin-6-one] | 345 nM | 920 nM |  | 100 nM |
| CCOC(=O)C1(C)C(=O)Nc2nc(-c3nn(Cc4ccccc4F)c4ncccc34)nc(I)c21 (racemic) [Example 43, (rac) Ethyl 2-[1-(2-fluorobenzyl)-1H-pyrazolo[3,4-b]pyridin-3-yl]-4-iodo-5-methyl-6-oxo-6,7-dihydro-5H-pyrrolo[2,3-d]pyrimidine-5-carboxylate] | 968 nM | 1750 nM |  | 100 nM |
| Cc1nc(C(C)C)sc1-c1nc(-c2nn(Cc3ccccc3F)c3ncccc23)nc2c1C(C)(C)C(=O)N2 [Example 37, 2-[1-(2-Fluorobenzyl)-1H-pyrazolo[3,4-b]pyridin-3-yl]-4-(2-isopropyl-4-methyl-1,3-thiazol-5-yl)-5,5-dimethyl-5,7-dihydro-6H-pyrrolo[2,3-d]pyrimidin-6-one] | 1430 nM | 500 nM |  | 1000 nM |
| CCC1(C)C(=O)Nc2nc(-c3nn(Cc4ccccc4F)c4ncc(F)cc34)nnc21 (single isomer, unassigned) [Example 7-2, 7-Ethyl-3-[5-fluoro-1-(2-fluorobenzyl)-1H-pyrazolo[3,4-b]pyridin-3-yl]-7-methyl-5,7-dihydro-6H-pyrrolo[2,3-e][1,2,4]triazin-6-one] |  | 350 nM | 185 nM |  |
| CC1(CC2CC2)C(=O)Nc2nc(-c3nn(Cc4ccccc4F)c4ncc(F)cc34)nnc21 (single isomer, unassigned) [Example 5-1, 7-(Cyclopropylmethyl)-3-[5-fluoro-1-(2-fluorobenzyl)-1H-pyrazolo[3,4-b]pyridin-3-yl]-7-methyl-5,7-dihydro-6H-pyrrolo[2,3-e][1,2,4]triazin-6-one] |  | 350 nM | 321 nM |  |
| CCOC(=O)C1(C)C(=O)Nc2nc(-c3nn(Cc4ccccc4F)c4ncccc34)ncc21 (racemic) [Example 33, (rac) Ethyl 2-[1-(2-fluorobenzyl)-1H-pyrazolo[3,4-b]pyridin-3-yl]-5-methyl-6-oxo-6,7-dihydro-5H-pyrrolo[2,3-d]pyrimidine-5-carboxylate] |  | 870 nM |  | 10 nM |

Compounds with a lower IC50 [1], results first:

| IC50 (aorta rings; Oryctolagus cuniculus) | IC50 [1] | IC50 (aorta rings) | SMILES | MEC (minimum effective concentration) [2] |
| --- | --- | --- | --- | --- |
| 496 nM | 120 nM |  | Cc1ncc(-c2nc(-c3nn(Cc4ccccc4F)c4ncccc34)nc3c2C(C)(C)C(=O)N3)s1 [Example 35, 2-[1-(2-Fluorobenzyl)-1H-pyrazolo[3,4-b]pyridin-3-yl]-5,5-dimethyl-4-(2-methyl-1,3-thiazol-5-yl)-5,7-dihydro-6H-pyrrolo[2,3-d]pyrimidin-6-one] | 30 nM |
|  | 250 nM | 661 nM | CC1(CC2CC2)C(=O)Nc2nc(-c3nn(Cc4ccccc4F)c4ncc(F)cc34)nnc21 (single isomer, unassigned) [Example 5-2, 7-(Cyclopropylmethyl)-3-[5-fluoro-1-(2-fluorobenzyl)-1H-pyrazolo[3,4-b]pyridin-3-yl]-7-methyl-5,7-dihydro-6H-pyrrolo[2,3-e][1,2,4]triazin-6-one] |  |
|  | 200 nM | 59 nM | CCC1(C)C(=O)Nc2nc(-c3nn(Cc4ccccc4F)c4ncc(F)cc34)nnc21 (single isomer, unassigned) [Example 7-1, 7-Ethyl-3-[5-fluoro-1-(2-fluorobenzyl)-1H-pyrazolo[3,4-b]pyridin-3-yl]-7-methyl-5,7-dihydro-6H-pyrrolo[2,3-e][1,2,4]triazin-6-one] |  |
|  | 38 nM |  | CC1(C)C(=O)Nc2nc(-c3nn(Cc4ccccc4F)c4nc(C(F)(F)F)ccc34)nnc21 [Example 19, 3-[1-(2-Fluorobenzyl)-6-(trifluoromethyl)-1H-pyrazolo[3,4-b]pyridin-3-yl]-7,7-dimethyl-5,7-dihydro-6H-pyrrolo[2,3-e][1,2,4]triazin-6-one] | 1000 nM |
|  | 41 nM |  | CCOC(=O)C#Cc1nc(-c2nn(Cc3ccccc3F)c3ncccc23)nc2c1C(C)(C)C(=O)N2 [Example 53, Ethyl 3-{2-[1-(2-fluorobenzyl)-1H-pyrazolo[3,4-b]pyridin-3-yl]-5,5-dimethyl-6-oxo-6,7-dihydro-5H-pyrrolo[2,3-d]pyrimidin-4-yl}prop-2-ynoate] | 100 nM |
|  | 22 nM |  | Cc1nc2c(cc1F)c(-c1nnc3c(n1)NC(=O)C3(C)C)nn2Cc1ccccc1F [Example 21, 3-[5-Fluoro-1-(2-fluorobenzyl)-6-methyl-1H-pyrazolo[3,4-b]pyridin-3-yl]-7,7-dimethyl-5,7-dihydro-6H-pyrrolo[2,3-e][1,2,4]triazin-6-one] | 30 nM |
